Test results published in patent publication US20080299140A1, “Immunogenic Composition and Peptide Sequences for Prevention and Treatment of an Hsv Condition” (priority 2002, published 2008).
Positions count from the first letter of the chain named. Where two headings read alike, the source gives them in different places.

Tests used:
[1] = target: T1, DR1=HLA-DR(α1*0101,α1*0101) (Homo sapiens, UniProt P01903+P01911, A100R/D57E/F55L/F60I/F76Y/I96L/L162R/M171V/P40L/Q125E/R42F/V115G/Y59C); assay: biochemical; type: binding; conditions: […]
T1 construct: endogenous in cells; host or cells: EBV homozygous human B cell line

[2] = target: T2, DR3=HLA-DR(α1*0101,α1*0301) (Homo sapiens, UniProt P01903+P01911, A100K/A102G/A103R/A169T/F55Y/I96L/K41T/L162R/M171V/P40S/Q125H/Q178H/Q39Y/R42S/S66N/T106N/T262R/W38E/Y61H); assay: HLA-DR specific binding assay, DR3
T2 construct: endogenous in cells; host or cells: STEILIN (EBV homozygous B cell line)

[3] = target: T3, DR4=HLA-DR(α1*0101,α1*0401) (Homo sapiens, UniProt P01903+P01911, A100K/A169T/F76Y/I96L/K127E/L162R/M171V/N62H/P40V/Q125Y/R42H/S133A/S149N/S66Y/V115G/V209L/W38E); assay: biochemical; type: binding
T3 construct: endogenous in cells; host or cells: BOLETH (EBV homozygous B cell line)

[4] = target: T4, DR7=HLA-DR(α1*0101,α1*0701) (Homo sapiens, UniProt P01903+P01911, A100R/A102G/A103Q/D57E/D86V/E43K/F76Y/K127E/L162R/M171V/P40G/Q125H/Q99D/R33Q/R42Y/R54Q/S133A/S66F/T210M/V115G/Y107V/Y59L/Y89S); assay: HLA-DR specific binding assay, DR7
T4 construct: endogenous in cells; host or cells: EBV homozygous human B cell line

[5] = target: T5, DR11=HLA-DR(α1*0101,α1*1101) (Homo sapiens, UniProt P01903+P01911, A100R/A169T/A87E/I96F/K41T/L162R/M171V/P40S/Q125H/Q178H/Q39Y/Q99D/R42S/S66Y/T262R/V115G/W38E); assay: biochemical; type: binding
T5 construct: endogenous in cells; host or cells: SWEIG (EBV homozygous B cell line)

[6] = target: T6, DR13=HLA-DR(α1*0101,α1*1301) (Homo sapiens, UniProt P01903+P01911, A100E/A169T/K41T/L162R/M171V/P40S/Q125H/Q178H/Q39Y/Q99D/R42S/S66N/T262R/W38E/Y61H); assay: HLA-DR specific binding assay, DR13
T6 construct: endogenous in cells; host or cells: 0206AD (EBV homozygous B cell line)

[7] = target: T7, DR15=HLA-DR(α1*0101,α1*1501) (Homo sapiens, UniProt P01903+P01911); assay: HLA-DR specific binding assay, DR15
T7 construct: endogenous in cells; host or cells: EBV homozygous human B cell line

[8] = target: T8, DRB3=HLA-DR(α1*0101,α3*0101) (Homo sapiens, UniProt P01903+P79483); assay: HLA-DR specific binding assay, DRB3 (DR52)
T8 construct: endogenous in cells; host or cells: STEILIN or 0206AD (both typed DRB3*0101)

[9] = target: T9, DRB4=HLA-DR(α1*0101,α4*0101) (Homo sapiens, UniProt P01903+P13762, G164S); assay: HLA-DR specific binding assay, DRB4 (DR53)
T9 construct: endogenous in cells

[10] = target: T10, DRB5=HLA-DR(α1*0101,α5*0101) (Homo sapiens, UniProt P01903+Q30154); assay: biochemical; type: binding; conditions: Table V; […]; read-out: IC50 DRB5
T10 construct: endogenous in cells; host or cells: EBV homozygous human B cell line

[11] = target: T11, DP401=HLA-DP(α1*0101,α1*0401) (Homo sapiens, UniProt P04440+P20036); assay: biochemical; type: binding
T11 sequence (P20036 32-260 limits assumed): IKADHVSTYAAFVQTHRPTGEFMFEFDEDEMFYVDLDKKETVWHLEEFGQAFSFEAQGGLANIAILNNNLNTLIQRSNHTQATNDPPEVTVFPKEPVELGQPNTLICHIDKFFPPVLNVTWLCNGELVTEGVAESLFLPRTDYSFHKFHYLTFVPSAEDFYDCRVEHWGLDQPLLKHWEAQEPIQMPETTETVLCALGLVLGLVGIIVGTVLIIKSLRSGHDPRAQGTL
T11 sequence (P04440 30-258): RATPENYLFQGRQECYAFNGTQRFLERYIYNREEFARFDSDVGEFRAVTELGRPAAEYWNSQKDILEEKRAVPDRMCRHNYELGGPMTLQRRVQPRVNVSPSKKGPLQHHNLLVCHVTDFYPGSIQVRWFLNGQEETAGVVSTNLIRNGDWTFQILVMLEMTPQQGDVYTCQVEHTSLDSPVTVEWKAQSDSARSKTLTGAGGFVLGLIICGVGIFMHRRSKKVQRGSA

[12] = target: T12, DP402 DP (α1*0101, α1*0402) (Homo sapiens, UniProt P04440+P20036, A65V/A84D/A85E/L207M); assay: biochemical; type: binding
T12 sequence (P20036 29-260): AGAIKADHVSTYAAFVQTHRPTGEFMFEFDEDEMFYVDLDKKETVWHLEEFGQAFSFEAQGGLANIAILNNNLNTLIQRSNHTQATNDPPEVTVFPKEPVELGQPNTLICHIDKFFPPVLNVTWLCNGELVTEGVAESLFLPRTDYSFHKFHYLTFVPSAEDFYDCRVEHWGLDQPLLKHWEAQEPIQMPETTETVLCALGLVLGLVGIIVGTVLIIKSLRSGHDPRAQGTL
T12 sequence (P04440 30-258 A65V/A84D/A85E): T11 sequence (P04440 30-258) with A36V, A55D, A56E

[13] = test system: HLA-DR and HLA-DP molecules; assay: MHC class II binding assays, panel of twelve HLA class II molecules (number of alleles bound); conditions: number of the twelve class II MHC alleles bound; title: Threshold 600 nM/5 alleles
[14] = test system: lymphocytes obtained from HSV-1 infected H-2^d mice; assay: HSV-primed T-cell responses to gD peptides in HSV-1 infected mice; type: cell-based; conditions: HSV-1 infected H-2^d mice
Procedure: Twelve days after the second immunization, spleen and inguinal lymph nodes (LN) were removed and placed into ice-cold serum free HL-1 medium supplemented with 15 mM HEPES, 5×10^−5 M β-mercaptoethanol, 2 mM glutamine, 50 U of penicillin and 50 μg of streptomycin (GIBCO-BRL, Grand Island, N.Y.) (complete medium, CM). The cells were cultured in 96-well plates at 5×10^5 cells/well in CM, with recall or control peptide at 30, 10, 3, 1, or 0.3 μg/ml concentration, as previously described in (BenMohamed et al., 2000 and 2002). The cell suspensions were incubated for 72 h at 37° C. in 5% CO2. One μCi (micro-curie) of (^3H)-thymidine (Dupont MEN, Boston, Mass.) was added to each well during the last 16 h of culture. The incorporated radioactivity was determined by harvesting cells onto glass fiber filters and counted on a Matrix 96 direct ionization-counter (Packard Instruments, Meriden, Conn.). Results were expressed as the mean cpm of cell-associated (^3H)-thymidine recovered from wells containing Ag minus the mean cpm of cell-associated (^3H)-thymidine recovered from wells without Ag (A cpm) (average of triplicate). The Stimulation Index (SI) was calculated as the mean cpm of cell-associated (^3H)-thymidine recovered from wells containing Ag divided by the mean cpm of cell-associated (^3H)-thymidine recovered from wells without Ag (average of triplicate). For all experiments the irrelevant control peptide gB141-165 and the T-cell mitogen Concanavalin A (ConA) (Sigma, St. Louis, Mo.) were used as negative and positive controls, respectively. Proliferation results were confirmed by repeating each experiment twice. A T-cell proliferative response was considered positive when A cpm>1000 and SI>2.
To define the fine specificity of broadly reactive T-cells associated with viral immunity and to explore immunodominance in the context of HSV infection, proliferation of lymphocytes obtained from twenty HSV-1 infected H-2^d mice were evaluated using the twelve gD peptides as Ag (FIG. 6). […] Despite a difference between individual mice, a unique array of T-cell responses was identified for each of the twenty infected mice analyzed.

[15] = Class II MHC allele DR1, read-out: IC50, DR1
[16] = IC50, DR3, Class II MHC allele DR3
[17] = Class II MHC allele DR4, read-out: IC50, DR4
[18] = Table V, […], read-out: IC50 DR4
[19] = Class II MHC allele DR11, read-out: IC50, DR11
[20] = Table V, […], read-out: IC50 DR11
[21] = IC50, DRD3, Class II MHC allele DRD3 (so in the source)

T8 sequence (P79483 30-266, other chains not shown): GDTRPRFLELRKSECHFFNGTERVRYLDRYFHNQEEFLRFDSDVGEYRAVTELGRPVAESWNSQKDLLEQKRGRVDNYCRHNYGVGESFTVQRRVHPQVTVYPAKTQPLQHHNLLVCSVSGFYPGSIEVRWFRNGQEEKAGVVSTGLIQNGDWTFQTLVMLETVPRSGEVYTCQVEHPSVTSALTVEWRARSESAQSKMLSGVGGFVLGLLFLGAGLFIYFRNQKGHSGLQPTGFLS
T10 sequence (Q30154 30-266, other chains not shown): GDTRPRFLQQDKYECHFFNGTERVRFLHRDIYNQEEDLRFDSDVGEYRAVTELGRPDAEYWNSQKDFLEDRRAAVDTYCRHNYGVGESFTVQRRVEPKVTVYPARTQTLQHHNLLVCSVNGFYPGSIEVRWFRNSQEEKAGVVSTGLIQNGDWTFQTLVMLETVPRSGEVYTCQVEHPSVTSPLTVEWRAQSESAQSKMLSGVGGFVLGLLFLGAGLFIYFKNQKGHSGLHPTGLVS

| SMILES | IC50 ([1]; Table V, read-out: IC50 DR1) [nM] | IC50 [1, 15] [nM] | IC50 [2, 16] [nM] | IC50 ([2]; IC50 DR3, Table V, […]) [nM] | IC50 [3, 17] [nM] | IC50 [3, 18] [nM] | IC50 [4] [nM] | IC50 [5, 19] [nM] | IC50 [5, 20] [nM] | IC50 [6] [nM] | IC50 [7] [nM] | IC50 [8, 21] [nM] | IC50 ([8]; IC50 DRB3, Table V, […]) [nM] | IC50 [9] [nM] | IC50 [10] [nM] | IC50 ([11]; Class II MHC allele DP401) [nM] | IC50 ([11]; Table V, […]) [nM] | IC50 ([12]; Class II MHC allele DP402) [nM] | IC50 ([12]; Table V, […]) [nM] | Range [13] | other results |
| --- | --- | --- | --- | --- | --- | --- | --- | --- | --- | --- | --- | --- | --- | --- | --- | --- | --- | --- | --- | --- | --- |
| CC[C@H](C)[C@H](NC(=O)[C@H](CCSC)NC(=O)[C@H](CCC(=O)O)NC(=O)[C@H](CCCNC(=N)N)NC(=O)[C@H](C)NC(=O)[C@H](CCC(=O)O)NC(=O)[C@H](C)NC(=O)[C@H](CC(C)C)NC(=O)[C@@H](N)CCCCN)C(=O)N[C@@H](CCCNC(=N)N)C(=O)N[C@@H](Cc1ccc(O)cc1)C(=O)N[C@@H](CCSC)C(=O)N[C@@H](C)C(=O)N[C@@H](CC(C)C)C(=O)N[C@H](C(=O)N[C@@H](CO)C(=O)N[C@@H](C)C(=O)N[C@@H](CCSC)C(=O)N[C@@H](CCC(=O)O)C(=O)N[C@@H](CCCNC(=N)N)C(=O)N[C@H](C(=O)N[C@@H](CCC(=O)O)C(=O)N[C@@H](Cc1c[nH]cn1)C(=O)N[C@@H](CCCCN)C(=O)N[C@@H](C)C(=O)N[C@@H](CCCCN)C(=O)N[C@@H](CCCCN)C(=O)N[C@@H](CCCCN)C(=O)NCC(=O)N[C@H](C(=O)N[C@@H](CO)C(=O)N[C@@H](C)C(=O)O)[C@@H](C)O)[C@@H](C)O)C(C)C [HSV 1] | 6 | 6 | 995 | 995 | 37 | 37 | 296 | 13 | 13 | 284 | 3 | > 100000 | > 100000 | 43 | 6 | 1610 | 1610 | 240 | 240 | 10 | – |
| CC[C@H](C)[C@H](NC(=O)[C@@H](N)[C@@H](C)O)C(=O)N[C@@H](C)C(=O)N[C@@H](Cc1c[nH]c2ccccc12)C(=O)N[C@@H](Cc1ccccc1)C(=O)N[C@@H](CCCNC(=N)N)C(=O)N[C@@H](CCSC)C(=O)NCC(=O)NCC(=O)N[C@@H](CC(N)=O)C(=O)N[C@@H](CS)C(=O)N[C@@H](C)C(=O)N[C@H](C(=O)N1CCC[C@H]1C(=O)N[C@H](C(=O)N[C@H](C(=O)N[C@H](C(=O)N[C@@H](CCSC)C(=O)N[C@@H](CCC(=O)O)C(=O)N[C@@H](Cc1ccc(O)cc1)C(=O)N[C@H](C(=O)N[C@@H](CCC(=O)O)C(=O)N[C@@H](CS)C(=O)N[C@@H](CO)C(=O)N[C@@H](Cc1ccc(O)cc1)C(=O)N[C@@H](CC(N)=O)C(=O)N[C@@H](CCCCN)C(=O)N[C@@H](CO)C(=O)O)[C@@H](C)O)C(C)C)[C@@H](C)O)[C@@H](C)CC)[C@@H](C)CC [HSV 41] | – | – | – | – | – | – | – | – | – | – | – | – | – | – | – | – | – | – | – | 8 | immunodominance of epitopes in HSV-primed T-cell responses [14]: subdominant epitopes |
| CSCC[C@H](NC(=O)[C@@H](NC(=O)[C@H](Cc1ccc(O)cc1)NC(=O)[C@H](CCCNC(=N)N)NC(=O)[C@@H](N)Cc1ccccc1)C(C)C)C(=O)N[C@@H](CCCNC(=N)N)C(=O)N[C@@H](CC(C)C)C(=O)N[C@@H](CCC(N)=O)C(=O)N[C@@H](CO)C(=O)N[C@@H](CC(N)=O)C(=O)N1CCC[C@H]1C(=O)N[C@@H](CCSC)C(=O)N[C@@H](CCCCN)C(=O)N[C@@H](C)C(=O)N[C@@H](CC(C)C)C(=O)N[C@@H](Cc1ccc(O)cc1)C(=O)N1CCC[C@H]1C(=O)N[C@@H](CC(C)C)C(=O)N[C@H](C(=O)N[C@H](C(=O)N[C@@H](CCCCN)C(=O)N[C@@H](CCC(=O)O)C(=O)N[C@@H](CC(C)C)C(=O)N[C@@H](CCCCN)C(=O)N[C@@H](CC(N)=O)C(=O)N1CCC[C@H]1C(=O)N[C@H](C(=O)N[C@@H](CC(N)=O)C(=O)N1CCC[C@H]1C(=O)N[C@@H](CC(=O)O)C(=O)N[C@@H](C)C(=O)N[C@@H](CO)C(=O)NCC(=O)N[C@@H](CCC(=O)O)C(=O)NCC(=O)O)[C@@H](C)O)[C@@H](C)O)[C@@H](C)O [HSV 8] | 2 | 2 | 4780 | 4780 | 12 | 12 | 20 | 4 | 4 | 314 | 3 | 55000 | 55000 | 232 | 2 | 107 | 107 | 32 | 32 | 10 | – |
